target: human somatostatin receptor subtype 5 (Homo sapiens, UniProt P35346); assay: cAMP assay for SST5R (inhibition of cAMP via human SST5 receptor)
Sequence (P35346 whole entry): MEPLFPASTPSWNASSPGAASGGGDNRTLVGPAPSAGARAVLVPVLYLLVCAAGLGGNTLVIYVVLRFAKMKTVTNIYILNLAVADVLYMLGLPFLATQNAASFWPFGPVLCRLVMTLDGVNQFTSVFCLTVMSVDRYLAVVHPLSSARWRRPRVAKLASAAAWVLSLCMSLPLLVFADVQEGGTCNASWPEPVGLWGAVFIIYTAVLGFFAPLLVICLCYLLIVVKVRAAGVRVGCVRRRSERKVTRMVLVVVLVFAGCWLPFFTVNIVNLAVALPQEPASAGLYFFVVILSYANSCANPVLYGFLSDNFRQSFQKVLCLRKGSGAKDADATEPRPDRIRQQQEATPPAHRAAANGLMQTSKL
Protocol: cAMP Assay Protocol for SST5R:
The cells are cultured at 37° C., 5% CO2 and 95% humidity. […] The cells are incubated for 20 minutes at 37° C. […] The cells are treated with 50 μL of lysis buffer (HRTF cAMP kit, Cisbio) for 30 minutes and then the lysate is diluted to 250 μL with assay buffer. The lysate is transferred to 384-well plates and cAMP detection and visualization antibodies are added and incubated for 1-24 hours at room temperature. The time-resolved fluorescent signal is read with a Tecan M1000Pro multiplate reader. The intracellular cAMP concentrations are calculated by regression to a standard curve and are plotted vs. the concentration of the compounds of the invention and the EC50 of the compounds are calculated using standard methods. All data manipulations are in GraphPad Prism v6 or v7.

Compound | EC50 [nM]
Cc1cc(F)cc(-c2cncc(-c3nc4cc(Cl)cc(F)c4[nH]3)c2N2CC(CN)C2)c1 [Compound 1-18, 1-{1-[3-(6-chloro-4-fluoro-1H-1,3-benzodiazol-2-yl)-5-(3-fluoro-5-methylphenyl)pyridin-4-yl]azetidin-3-yl}methanamine] | 10 to 100
Cc1cc(C)cc(-c2cncc(-c3nc4cc(F)cc(F)c4[nH]3)c2N2CC(CN)C2)c1 [Compound 1-19, 1-{1-[3-(4,6-difluoro-1H-1,3-benzodiazol-2-yl)-5-(3,5-dimethylphenyl)pyridin-4-yl]azetidin-3-yl}methanamine] | 10 to 100
Cc1cc(Cl)cc(-c2cncc(-c3nc4cc(F)cc(F)c4[nH]3)c2N2CC(CN)C2)c1 [Compound 1-20, 1-{1-[3-(3-chloro-5-methylphenyl)-5-(4,6-difluoro-1H-1,3-benzodiazol-2-yl)pyridin-4-yl]azetidin-3-yl}methanamine] | < 10
NCC1CN(c2c(-c3cc(F)cc(F)c3)cncc2-c2nc3cc(F)cc(F)c3[nH]2)C1 [Compound 1-21, 1-{1-[3-(4,6-difluoro-1H-1,3-benzodiazol-2-yl)-5-(3,5-difluorophenyl)pyridin-4-yl]azetidin-3-yl}methanamine] | < 10
Cc1cc(F)cc(-c2cncc(-c3nc4cnccc4[nH]3)c2N2CC(CN)C2)c1 [Compound 1-22, 1-{1-[3-(3-fluoro-5-methylphenyl)-5-{3H-imidazo[4,5-c]pyridin-2-yl}pyridin-4-yl]azetidin-3-yl}methanamine] | 100 to 1000
Cc1cc(F)cc(-c2cncc(-c3nc4cccnc4[nH]3)c2N2CC(CN)C2)c1 [Compound 1-23, 1-{1-[3-(3-fluoro-5-methylphenyl)-5-{1H-imidazo[4,5-b]pyridin-2-yl}pyridin-4-yl]azetidin-3-yl}methanamine] | 100 to 1000
Cc1cc(F)cc(-c2cncc(-c3nc4c(F)cccc4n3C)c2N2CC(CN)C2)c1 [Compound 1-24, 1-{1-[3-(4-fluoro-1-methyl-1H-1,3-benzodiazol-2-yl)-5-(3-fluoro-5-methylphenyl)pyridin-4-yl]azetidin-3-yl}methanamine] | 10 to 100
Cc1cc(F)cc(-c2cncc(-c3nc4cccc(F)c4n3C)c2N2CC(CN)C2)c1 [Compound 1-25, 1-{1-[3-(7-Fluoro-1-methyl-1H-1,3-benzodiazol-2-yl)-5-(3-fluoro-5-methylphenyl)pyridin-4-yl]azetidin-3-yl}methanamine] | 10 to 100
Cc1cc(F)cc(-c2cncc(-c3nc4cc(F)cc(F)c4[nH]3)c2N2CC(O)(CN)C2)c1 [Compound 1-26, 3-(aminomethyl)-1-[3-(4,6-difluoro-1H-1,3-benzodiazol-2-yl)-5-(3-fluoro-5-methylphenyl)pyridin-4-yl]azetidin-3-ol] | 100 to 1000
NCC1CN(c2c(-c3ccccc3)cncc2-c2nc3c(F)cc(F)cc3[nH]2)C1 [Compound 1-27, 1-{1-[3-(4,6-difluoro-1H-1,3-benzodiazol-2-yl)-5-phenylpyridin-4-yl]azetidin-3-yl}methanamine] | 10 to 100
Cc1cccc(-c2cncc(-c3nc4c(F)cc(F)cc4[nH]3)c2N2CC(CN)C2)c1 [Compound 1-29, 1-{1-[3-(4,6-difluoro-1H-1,3-benzodiazol-2-yl)-5-(3-methylphenyl)pyridin-4-yl]azetidin-3-yl}methanamine] | < 10
Cc1ccccc1-c1cncc(-c2nc3cc(F)cc(F)c3[nH]2)c1N1CC(CN)C1 [Compound 1-30, 1-{1-[3-(4,6-difluoro-1H-1,3-benzodiazol-2-yl)-5-(2-methylphenyl)pyridin-4-yl]azetidin-3-yl}methanamine] | 10 to 100
Cc1ccc(-c2cncc(-c3nc4cc(F)cc(F)c4[nH]3)c2N2CC(CN)C2)cc1 [Compound 1-31, 1-{1-[3-(4,6-difluoro-1H-1,3-benzodiazol-2-yl)-5-(4-methylphenyl)pyridin-4-yl]azetidin-3-yl}methanamine] | 10 to 100
Cc1cncc(-c2cncc(-c3nc4cc(F)cc(F)c4[nH]3)c2N2CC(CN)C2)c1 [Compound 1-32, 1-{1-[5-(4,6-difluoro-1H-1,3-benzodiazol-2-yl)-5′-methyl-[3,3′-bipyridin]-4-yl]azetidin-3-yl}methanamine] | 100 to 1000
Cc1cc(-c2cncc(-c3nc4cc(F)cc(F)c4[nH]3)c2N2CC(CN)C2)cc(C(F)(F)F)c1 [Compound 1-33, 1-{1-[3-(4,6-difluoro-1H-1,3-benzodiazol-2-yl)-5-[3-methyl-5-(trifluoromethyl)phenyl]pyridin-4-yl]azetidin-3-yl}methanamine] | 100 to 1000
N#Cc1cc(F)cc(-c2cncc(-c3nc4cc(F)cc(F)c4[nH]3)c2N2CC(CN)C2)c1 [Compound 1-34, 3-{4-[3-(aminomethyl)azetidin-1-yl]-5-(4,6-difluoro-1H-1,3-benzodiazol-2-yl)pyridin-3-yl}-5-fluorobenzonitrile] | < 10
NCC1CN(c2c(-c3ccc4cc[nH]c4c3)cncc2-c2nc3cc(F)cc(F)c3[nH]2)C1 [Compound 1-35, 1-{1-[3-(4,6-difluoro-1H-1,3-benzodiazol-2-yl)-5-(1H-indol-6-yl)pyridin-4-yl]azetidin-3-yl}methanamine] | > 1000
NCC1CN(c2c(-c3nc4cc(F)cc(F)c4[nH]3)cncc2-c2cccc3cc[nH]c23)C1 [Compound 1-36, 1-{1-[3-(4,6-difluoro-1H-1,3-benzodiazol-2-yl)-5-(1H-indol-7-yl)pyridin-4-yl]azetidin-3-yl}methanamine] | 10 to 100
NCC1CN(c2c(-c3cc(Cl)cc(C(F)(F)F)c3)cncc2-c2nc3cc(F)cc(F)c3[nH]2)C1 [Compound 1-40, 1-(1-{3-[3-chloro-5-(trifluoromethyl)phenyl]-5-(4,6-difluoro-1H-1,3-benzodiazol-2-yl)pyridin-4-yl}azetidin-3-yl)methanamine] | 10 to 100
NCC1CN(c2c(-c3nc4c(F)cc(F)cc4[nH]3)cncc2-c2ccccc2F)C1 [Compound 1-44, 1-{1-[3-(4,6-difluoro-1H-1,3-benzodiazol-2-yl)-5-(2-fluorophenyl)pyridin-4-yl]azetidin-3-yl}methanamine] | 100 to 1000
Cc1ccc(F)c(-c2cncc(-c3nc4cc(F)cc(F)c4[nH]3)c2N2CC(CN)C2)c1 [Compound 1-45, 1-{1-[3-(4,6-difluoro-1H-1,3-benzodiazol-2-yl)-5-(2-fluoro-5-methylphenyl)pyridin-4-yl]azetidin-3-yl}methanamine] | 10 to 100
Cc1ccc(F)cc1-c1cncc(-c2nc3cc(F)cc(F)c3[nH]2)c1N1CC(CN)C1 [Compound 1-46, 1-{1-[3-(4,6-difluoro-1H-1,3-benzodiazol-2-yl)-5-(5-fluoro-2-methylphenyl)pyridin-4-yl]azetidin-3-yl}methanamine] | 10 to 100
Cc1cc(-c2cncc(-c3nc4cc(F)cc(F)c4[nH]3)c2N2CC(CN)C2)ccc1F [Compound 1-47, 1-{1-[3-(4,6-difluoro-1H-1,3-benzodiazol-2-yl)-5-(4-fluoro-3-methylphenyl)pyridin-4-yl]azetidin-3-yl}methanamine] | < 10
NCC1CN(c2c(-c3cc(F)c(F)c(F)c3)cncc2-c2nc3cc(F)cc(F)c3[nH]2)C1 [Compound 1-48, 1-{1-[3-(4,6-difluoro-1H-1,3-benzodiazol-2-yl)-5-(3,4,5-trifluorophenyl)pyridin-4-yl]azetidin-3-yl}methanamine] | < 10

Source: US11608335B2, “Somatostatin modulators and uses thereof” (CRINETICS PHARMACEUTICALS, INC., priority 2018, dated 2023)
